# Experimental data: patent publication US20060019980A1, “Methods for treating or preventing erectile dysfunction or urinary incontinence” (Inotek Pharmaceutical, Corp., priority 2004, published 2006)
# Counter-ions that a name gives are not always drawn.
# Test system: male Sprague-Dawley rats
# Test: cavernous nerve crush injury rat model: erectile function (ICP, ICP/MAP) on cavernosal nerve stimulation
# Format: in vivo
# Protocol: Experiments were conducted in male Sprague-Dawley rats according to previously published methods for forceps-induced nerve crush injury and erectile function measurements (Rehman, J., et al., Urology 51:640-644, 1998; Sezen, S. F., et al., Int J. Impot. Res. 14:506-12, 2002). Subjects were anesthetized with Phenobarbital. The prostate of the subjects was exposed and the cavernosal nerve was clipped on either side with a forceps to induce mechanical injury (crush). This rat model mimics the nerve injury that develops during human male prostatectomy, leading to nerve injury and subsequent erectile dysfunction. Subjects were studied 2 weeks after the injury. Two groups of subjects were used, one group treated with vehicle and one group treated with compound 8l methanesulfonate salt. Compound 8l methanesulfonate salt was injected at 30 mg/kg i.v. immediately before the crush injury, and on the following day at the same dose. Thereafter, for 12 days, subjects were treated with 60 mg/kg compound 8l methanesulfonate salt intraperitoneally. At 2 weeks, subjects were re-anesthetized and measured for mean arterial blood pressure (MAP) and intracavernosal pressure (ICP). Cavernosal nerve stimulation was conducted at 5 and 7.5 V using a square pulse stimulator for 30 msec. ICP was determined as the area under curve (mmHg×sec). In addition, IPC/MAP ratios were determined.
compound,measurement,setting,value
O=c1[nH]c2c(c3ccccc13)Cc1cc(S(=O)(=O)NCCCN3CCOCC3)ccc1-2 [Compound 8l methanesulfonate salt],erectile function,"rat model that mimics the nerve injury that develops during human male prostatectomy, versus vehicle",improves erectile function
same,"ICP (intracavernosal pressure, area under curve)","rats 2 weeks after cavernous nerve crush injury, 30 mg/kg i.v. immediately before injury and next day, then 60 mg/kg i.p. for 12 days, cavernosal nerve stimulation at 5 and 7.5 V, mean ± SEM, n = 14-16, *p < 0.05, vehicle 1124 ± 212, normal approx. 4000",1471 ± 151* mmHg × sec
same,ICP/MAP ratio,"rats 2 weeks after cavernous nerve crush injury, 30 mg/kg i.v. immediately before injury and next day, then 60 mg/kg i.p. for 12 days, mean ± SEM, n = 14-16, *p < 0.05, vehicle 0.16 ± 0.03, normal approx. 0.8-0.9",0.23 ± 0.02*
